# Measurements published in publication PMC1971749, “The effects of gonadotrophin releasing hormone analogues in prostate cancer are mediated through specific tumour receptors” (British Journal of Cancer, 1990).
# Like-named read-outs stand apart in the source and are kept apart here.
# Tests used:
# [1] = tested on: GnRH binding sites of LNCaP cells; assay: GnRH analogue binding to LNCaP cells (displacement of 125I-buserelin); set-up: species or system human; details: for displacement of labelled buserelin: specificity test, structurally unrelated peptides, LNCaP
# Text: (§1) Br.~~~~ ~ ~ J. Cace (19) 62 969 ?amla resLd,19 The effects of gonadotrophin releasing hormone analogues in prostate cancer are mediated through specific tumour receptors A. Qayuml, W. Gullick2, R.C. Clayton3, K. Sikora' & J. Waxman' 'Department of Clinical Oncology and 2ICRF Oncology Group, Royal Postgraduate Medical School, and 3Clinical Endocrinology, MRC, Northwick Park Hospital, London, UK. Summary We have investigated the possibility of a direct regulatory effect of gonadotrophin releasing hormone (GnRH) analogues on prostatic cancer cell growth. Here we report high affinity binding (Kd = 50 nM) of a GnRH analogue resulting in biphasic growth modulation of the human androgen-sensitive prostatic cancer cell line LNCaP. […] Seventy-six human benign and malignant tumours were assayed following surgical resection. […] Cancer of the prostate is the second most common cause of malignancy among males. The treatment of prostatic cancer aims to reduce serum androgen concentrations. The long- acting agonist analogues of GnRH have been recently intro- duced as effective alternative therapies to orchiectomy and oestrogen treatment (Waxman, 1987). Their effect on andro- gen dependent cell growth is thought to be mediated through down-regulation of the pituitary-gonadal axis. GnRH agon- ist treatment leads to an initial increase in the serum levels of LH, FSH and androgens and this may be accompanied by tumour flare (Waxman et al., 1985). However, this exacerba- tion of symptoms is not temporally related to changes in serum LH, FSH and androgen concentrations. The differ- ences in the timing of these biochemical and clinical phenomena raises the possibility of a direct effect of GnRH analogues at the level of the tumour. This present study explored the direct effects of GnRH analogues on prostatic cancer cells in culture and in vivo. GnRH analogue binding to human prostatic cancer cells grown in culture and biopsy samples was first examined. GnRH binding sites were characterised in cell lines and in human tumours. The biological effects of GnRH on prostatic cancer cells and a possible autocrine stimulatory role of GnRH-like peptides were investigated. Materials and methods Cell culture The human androgen-sensitive prostatic cancer cell line LNCaP (isolated from lymph node metastasis; Horoszewicz et al., 1983) and the human androgen-insensitive prostatic cell line DU145 (isolated from brain metastasis) were obtained from the American Type Culture Collection. Cul- tures were maintained in exponential growth in RPMI 1640 medium containing 10% charcoal stripped fetal calf serum and 5 fig ml-I insulin. The fetal calf serum used in cell cul- ture medium was treated with dextran and charcoal to remove steroids. Charcoal 0.25% and dextran-T70 0.025% were added to the serum, which was heated at 56'C for 2 h and then centrifuged at 4,000 r.p.m. for O min. The pellet was discarded, serum was filtered through 0.4 ltm filters and used in culture medium. The treated serum was assayed for steroid hormones by the Hammersmith Hospital Endocrine Laboratories and found to be steroid free, Cultures were incubated at 37?C in a humidified atmosphere containing 5% CO2 and subcultured weekly using 0.1% EDTA to remove the cells from the plastic substratum. Under these conditions, the doubling times of DU145 and LNCaP cells were 72 and 144 h respectively. GnRH binding assays Exponentially growing cells were harvested with 0.1% EDTA, washed twice with PBS and counted using 0.2% trypan blue as an indicator. The cells were then resuspended in assay buffer (10 mM Tris-HCI pH 7.6, 1 mM dithiothreitol, 0.3% bovine serum albumin). One million cells per tube were incubated with 200,000 c.p.m. (0.1 nM) of 25I buserelin (125J_ D-Ser (TBU)6-LHRH-ethylamide) (Hoechst AG, Frankfurt), (specific activity 53,000 kBq;bg-') with or without varying concentrations of unlabelled buserelin (O.1-100 nM). Non- specific binding was estimated in the presence of 10 IM unlabelled buserelin. […]
# [2] = GnRH radioimmunoassay, specificity; details: cross-reactivity control, Figure 1; sensitivity 0.25 fmol per tube
# [3] = tested on: GnRH binding sites of DU145 cells; assay: GnRH analogue binding to DU145 cells (displacement of 125I-buserelin); set-up: species or system human
# Text: (§2) Br.~~~~ ~ ~ J. Cace (19) 62 969 ?amla resLd,19 The effects of gonadotrophin releasing hormone analogues in prostate cancer are mediated through specific tumour receptors A. Qayuml, W. Gullick2, R.C. Clayton3, K. Sikora' & J. Waxman' 'Department of Clinical Oncology and 2ICRF Oncology Group, Royal Postgraduate Medical School, and 3Clinical Endocrinology, MRC, Northwick Park Hospital, London, UK. Summary We have investigated the possibility of a direct regulatory effect of gonadotrophin releasing hormone (GnRH) analogues on prostatic cancer cell growth. Here we report high affinity binding (Kd = 50 nM) of a GnRH analogue resulting in biphasic growth modulation of the human androgen-sensitive prostatic cancer cell line LNCaP. […] Seventy-six human benign and malignant tumours were assayed following surgical resection. […] Cancer of the prostate is the second most common cause of malignancy among males. The treatment of prostatic cancer aims to reduce serum androgen concentrations. The long- acting agonist analogues of GnRH have been recently intro- duced as effective alternative therapies to orchiectomy and oestrogen treatment (Waxman, 1987). […] GnRH binding assays Exponentially growing cells were harvested with 0.1% EDTA, washed twice with PBS and counted using 0.2% trypan blue as an indicator. […]
# LNCaP cells = assay: Biological response study, growth of LNCaP cells; type: cell-based, human
# Text: as §1, with “Under these conditions, the doubling times of DU145 and LNCaP cells were 72 and 144 h respectively.” left out, “indicator.” for “indicator. The cells were then resuspended in assay buffer (10 mM Tris-HCI pH 7.6, 1 mM dithiothreitol, 0.3% bovine serum albumin). One million cells per tube were incubated with 200,000 c.p.m. (0.1 nM) of 25I buserelin (125J_ D-Ser (TBU)6-LHRH-ethylamide) (Hoechst AG, Frankfurt), (specific activity 53,000 kBq;bg-') with or without varying concentrations of unlabelled buserelin (O.1-100 nM). Non- specific binding was estimated in the presence of 10 IM unlabelled buserelin.”
# DU145 cells = assay: Biological response study, growth of DU145 cells; type: cell-based, human; details: DU145 (androgen-insensitive) cells, 10 days
# Text: as §2
# [4] = 100-fold excess of GnRH antagonist over buserelin, cell numbers, triplicate, representative experiment (Figure 6)
molecule,measurement,setting,value
oxytocin: structurally unrelated peptide,displacement of labelled buserelin,[1],did not displace labelled buserelin
same,GnRH-immunoreactivity in GnRH-RIA,[2],did not show any GnRH-immunoreactivity
D-Ser (TBU)6-LHRH-ethylamide [buserelin],Kd,"[1]; Scatchard transformation of the same data, single class of binding sites in LNCaP cells, read-out: Kd (Scatchard plot)",40 nM
same,binding sites per cell,"[1]; Scatchard transformation, LNCaP cells","35,000 binding sites per cell"
same,Kd,"[1]; intact LNCaP cells (10^6 per tube), 125I buserelin 0.1 nM, unlabelled buserelin, Tris-HCl pH 7.6, 3 h, 4 C, triplicate, representative experiment, read-out: Kd of GnRH analogue binding in LNCaP",50 nM
same,Kd,"[3]; 125I buserelin 0.1 nM, 3 h, 4 C, pH 7.6, abstract, read-out: Kd, low-affinity binding in DU145",10000 nM
same,growth of the cells at higher concentrations,"LNCaP cells; 10 days, GnRH analogue 100 nM",slightly inhibited
same,"stimulation of growth relative to control cultures, total DNA content","LNCaP cells; 10 days, buserelin 1-10 nM, 10% charcoal stripped FCS, Burton's method, three experiments each in triplicate",≤ 140%
same,"stimulation of growth relative to control cultures, cell numbers","LNCaP cells; 10 days, buserelin 1-10 nM, 10% charcoal stripped FCS, three experiments each in triplicate",≤ 140%
same,response to buserelin treatment (growth),DU145 cells,did not show any response
same,response to buserelin treatment (growth),DU145 cells; listed as GnRH analogue,without any biological response
"D-pGlul, D-Phe2, D- Trp3' 6) GnRH [GnRH antagonist]",block of inhibitory effect of buserelin,LNCaP cells; [4],partially blocked
same,block of stimulatory effect of buserelin,LNCaP cells; [4],partially blocked
"bradykinin: structurally unrelated peptide (RPPGFSPFR; Bradykinin; UniProt P01042 381-389, looked up)",displacement of labelled buserelin,[1],did not displace labelled buserelin
same,GnRH-immunoreactivity in GnRH-RIA,[2],did not show any GnRH-immunoreactivity
N[C@@H](CSSC[C@H](N)C(=O)Nc1ccc([N+](=O)[O-])cc1)C(=O)Nc1ccc([N+](=O)[O-])cc1 [L-cystine-bis-(4-nitroanilide)],reduction of specific binding of buserelin by protease substrate,"[1]; LNCaP cells, protease substrate final concentration 10 µM (printed ""10 gsM"")",28%
same,reduction of specific binding of buserelin by protease substrate,"[3]; protease substrate final concentration 10 µM (printed ""10 gsM"")",68%
